Experimental findings from patent publication US10174032B2, “Heterocyclic compound classes for signaling modulation” (SignalRx Pharmaceuticals, Inc., priority 2014, dated 2019) are described below.

In one assay the target is PI3K-gamma (Homo sapiens, UniProt P48736). The assay is described as follows: Kinase inhibition assay, P-33 labelled ATP phosphate transfer, PI3K-gamma. Format: biochemical. The conditions noted are these: for inhibition at 0.3 µM: read-out: PI3K-gamma(% Inh at 300 nM); for inhibition at 10 µM: read-out: PI3K-gamma(% Inh at 10 μM). As to the method:
(§1) The assays determined the amount of radioactive phosphate transferred from P-33 labelled ATP to the substrate by the enzyme in the presence of various concentrations of the inhibitor test compounds. […] After this time period the cells were serum starved for 5 hours followed by application of the test compound. Test compound was added as a DMSO (dimethyl sulfoxide) solution such that the final DMSO concentration in the cell media was less than or equal to 0.2% by volume. After 30 minutes of exposure the growth factor stimulant, human IGF-1 (Pepro Tech, Inc., Rocky Hill, N.J., Cat.#100-11), was added in each well. […] A SpectraMax Plus spectrophotometric plate reader (Molecular Devices, Sunnydale, Calif.) was used to measure the optical density signal for pAKT at 450 nm (OD450 nm). The pAKT OD450 nm readings were normalized by total protein amount in the cell lysates determined by standard methods. Concentrations of test compounds required to inhibit IGF stimulated pAKT levels to 50% of maximum levels in PC3 cells (termed DM50 for decreased maximum 50%) were calculated by inputting the dose responses in the software package GraphPad Prism4 (GraphPad Software, Inc., San Diego, Calif.).

The target of a further assay is PI3K-alpha (Homo sapiens, UniProt P42336). The assay is described as follows: Kinase inhibition assay, P-33 labelled ATP phosphate transfer, PI3K-alpha. The settings on record: for inhibition at 0.3 µM: read-out: PI3K-alpha (% Inh at 300 nM). The class given is biochemical. The procedure: as §1
The target of the next assay is mTOR (Homo sapiens, UniProt P42345). The assay is described as follows: Kinase inhibition assay, P-33 labelled ATP phosphate transfer, mTOR. The class given is biochemical. The conditions noted are these: for inhibition at 0.3 µM: read-out: mTOR(% Inh at 300 nM); for inhibition at 10 µM: read-out: mTOR(% Inh at 10 μM). The procedure: as §1
The next assay addresses PLK-1 (Homo sapiens, UniProt P53350). The assay is described as follows: Kinase inhibition assay, P-33 labelled ATP phosphate transfer, PLK-1. The class given is biochemical. The settings on record: for inhibition at 0.3 µM: read-out: PLK-1(% Inh at 300 nM); for inhibition at 10 µM: read-out: PLK-1(% Inh at 10 μM). The procedure: as §1
The next assay addresses PI3K-beta (Homo sapiens, UniProt P42338). The assay can be described thus: Kinase inhibition assay, P-33 labelled ATP phosphate transfer, PI3K-beta. The class given is biochemical. The settings on record: for inhibition at 0.3 µM: read-out: PI3K-beta(% Inh at 300 nM); for inhibition at 10 µM: read-out: PI3K-beta(% Inh at 10 μM). The procedure:
as §1

The next assay deals with PI3K-delta (Homo sapiens, UniProt O00329). The assay is described as follows: Kinase inhibition assay, P-33 labelled ATP phosphate transfer, PI3K-delta. The class given is biochemical. The settings on record: for inhibition at 0.3 µM: read-out: PI3K-delta(% Inh at 300 nM); for inhibition at 10 µM: read-out: PI3K-delta(% Inh at 10 μM). As to the method: as §1
Chain of PI3K-delta (O00329 whole entry, species assumed): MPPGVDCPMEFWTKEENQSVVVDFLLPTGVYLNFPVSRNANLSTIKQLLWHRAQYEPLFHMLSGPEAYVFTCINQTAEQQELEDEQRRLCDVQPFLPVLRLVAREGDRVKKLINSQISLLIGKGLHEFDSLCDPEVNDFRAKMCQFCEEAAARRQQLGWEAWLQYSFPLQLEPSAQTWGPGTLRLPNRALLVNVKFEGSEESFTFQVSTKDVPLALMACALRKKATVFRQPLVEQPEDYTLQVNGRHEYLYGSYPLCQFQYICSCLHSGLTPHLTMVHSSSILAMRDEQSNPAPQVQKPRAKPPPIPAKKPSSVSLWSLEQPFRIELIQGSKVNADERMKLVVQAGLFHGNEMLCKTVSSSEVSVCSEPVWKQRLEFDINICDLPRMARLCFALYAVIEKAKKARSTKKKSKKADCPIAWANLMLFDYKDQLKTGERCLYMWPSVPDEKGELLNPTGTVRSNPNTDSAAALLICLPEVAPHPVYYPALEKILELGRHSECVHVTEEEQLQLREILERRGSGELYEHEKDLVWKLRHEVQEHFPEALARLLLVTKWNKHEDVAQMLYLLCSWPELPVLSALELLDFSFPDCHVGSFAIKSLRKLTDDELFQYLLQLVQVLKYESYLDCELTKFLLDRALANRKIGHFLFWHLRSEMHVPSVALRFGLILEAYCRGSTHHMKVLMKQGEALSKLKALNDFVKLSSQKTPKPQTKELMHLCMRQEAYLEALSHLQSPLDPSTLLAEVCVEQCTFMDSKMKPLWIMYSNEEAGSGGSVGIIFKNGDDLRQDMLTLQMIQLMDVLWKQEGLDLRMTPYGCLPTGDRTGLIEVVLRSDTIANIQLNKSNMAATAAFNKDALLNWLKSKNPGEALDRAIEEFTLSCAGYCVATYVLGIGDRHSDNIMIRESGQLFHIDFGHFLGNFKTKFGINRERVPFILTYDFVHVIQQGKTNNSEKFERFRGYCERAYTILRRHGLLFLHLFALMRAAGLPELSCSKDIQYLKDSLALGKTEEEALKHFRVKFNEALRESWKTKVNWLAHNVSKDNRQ
Chain of PI3K-delta (P27986 whole entry partner, species assumed): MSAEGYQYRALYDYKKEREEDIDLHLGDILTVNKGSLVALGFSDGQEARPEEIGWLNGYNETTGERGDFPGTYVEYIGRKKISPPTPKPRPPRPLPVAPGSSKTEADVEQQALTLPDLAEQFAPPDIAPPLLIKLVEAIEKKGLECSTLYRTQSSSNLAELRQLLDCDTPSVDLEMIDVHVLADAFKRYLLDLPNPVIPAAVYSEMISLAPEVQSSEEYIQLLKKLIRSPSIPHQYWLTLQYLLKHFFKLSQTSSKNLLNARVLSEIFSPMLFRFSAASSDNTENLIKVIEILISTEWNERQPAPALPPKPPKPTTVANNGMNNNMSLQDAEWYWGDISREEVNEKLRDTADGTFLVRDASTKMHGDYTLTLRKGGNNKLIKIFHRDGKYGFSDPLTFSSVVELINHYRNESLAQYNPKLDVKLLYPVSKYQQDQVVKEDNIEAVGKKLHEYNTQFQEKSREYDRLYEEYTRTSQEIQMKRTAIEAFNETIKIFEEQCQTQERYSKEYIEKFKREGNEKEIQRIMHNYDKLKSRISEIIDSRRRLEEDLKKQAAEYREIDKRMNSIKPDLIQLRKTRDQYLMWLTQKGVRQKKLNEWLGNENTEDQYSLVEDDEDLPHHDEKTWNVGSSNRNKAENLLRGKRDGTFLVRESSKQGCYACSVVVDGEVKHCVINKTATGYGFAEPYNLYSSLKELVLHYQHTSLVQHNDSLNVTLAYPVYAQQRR
The next assay has as its target PIM-1 (Homo sapiens, UniProt P11309). The assay is described as follows: Kinase inhibition assay, P-33 labelled ATP phosphate transfer, PIM-1. Format: biochemical. The settings on record: for inhibition at 0.3 µM: read-out: PIM-1(% Inh at 300 nM); for inhibition at 10 µM: read-out: PIM-1(% Inh at 10 μM). As to the method: as §1
In a further assay the target is DNA-PK (Homo sapiens, UniProt P78527). The assay can be described thus: Kinase inhibition assay, P-33 labelled ATP phosphate transfer, DNA-PK. Format: biochemical. The settings on record: for inhibition at 0.3 µM: read-out: DNA-PK(% Inh at 300 nM). As to the method: as §1
For another assay, the system named is PC3 cells. The assay is described as follows: PC3 cell proliferation (WST, 72 hours). The conditions noted are these: Homo sapiens, read-out: PC3 cell proliferation(IC50 μM). The class given is cell-based. The procedure:
The PC3 cell proliferation data in column 26 of Table 5 was obtained as follows: PC3 cells were obtained from the American Type Culture Collection (ATCC, Manassas, Va., Cat.#CRL-1435). Two thousand cells from the prostate cancer line PC3 were placed in 50 μL of complete RPMI 1640 media (Invitrogen, Carlsbad, Calif., Cat.#22400-105) with 10% fetal bovine serum, (Invitrogen, Carlsbad, Calif., Cat.#10438-026) into each well of 96-well cell culture plates in a hexaplicate sampling pattern. A 50 μL aliquot of test compound (prepared from stock test compounds in DMSO diluted into media) was added to the appropriate well such that the final concentrations of test compound were 200, 40, 8, 1.6, 0.32, 0.064, 0.0128, 0.00256, and 0 μM and the final DMSO concentration was less than or equal to 0.2% . The plates were incubated for 72 hours 37° C. in an atmosphere of 5% CO2. At the end of this time a 10 μL aliquot of WST solution (Roche Applied Science, Mannheim, Germany) was added into each of the wells. Cells were exposed to the WST solution for 4 hours. A SpectraMax Plus spectrophotometric plate reader (Molecular Devices, Sunnydale, Calif.) was then used to measure the optical density at 450 nm (OD450 nm). Sigmoidal curves were drawn for the dose responses and IC50 values were calculated using the software package GraphPad Prism4 (GraphPad Software, Inc., San Diego, Calif.).

Read-outs that look alike come from different tables or passages of the source.

Chain of PI3K-beta (P42338 whole entry, species assumed): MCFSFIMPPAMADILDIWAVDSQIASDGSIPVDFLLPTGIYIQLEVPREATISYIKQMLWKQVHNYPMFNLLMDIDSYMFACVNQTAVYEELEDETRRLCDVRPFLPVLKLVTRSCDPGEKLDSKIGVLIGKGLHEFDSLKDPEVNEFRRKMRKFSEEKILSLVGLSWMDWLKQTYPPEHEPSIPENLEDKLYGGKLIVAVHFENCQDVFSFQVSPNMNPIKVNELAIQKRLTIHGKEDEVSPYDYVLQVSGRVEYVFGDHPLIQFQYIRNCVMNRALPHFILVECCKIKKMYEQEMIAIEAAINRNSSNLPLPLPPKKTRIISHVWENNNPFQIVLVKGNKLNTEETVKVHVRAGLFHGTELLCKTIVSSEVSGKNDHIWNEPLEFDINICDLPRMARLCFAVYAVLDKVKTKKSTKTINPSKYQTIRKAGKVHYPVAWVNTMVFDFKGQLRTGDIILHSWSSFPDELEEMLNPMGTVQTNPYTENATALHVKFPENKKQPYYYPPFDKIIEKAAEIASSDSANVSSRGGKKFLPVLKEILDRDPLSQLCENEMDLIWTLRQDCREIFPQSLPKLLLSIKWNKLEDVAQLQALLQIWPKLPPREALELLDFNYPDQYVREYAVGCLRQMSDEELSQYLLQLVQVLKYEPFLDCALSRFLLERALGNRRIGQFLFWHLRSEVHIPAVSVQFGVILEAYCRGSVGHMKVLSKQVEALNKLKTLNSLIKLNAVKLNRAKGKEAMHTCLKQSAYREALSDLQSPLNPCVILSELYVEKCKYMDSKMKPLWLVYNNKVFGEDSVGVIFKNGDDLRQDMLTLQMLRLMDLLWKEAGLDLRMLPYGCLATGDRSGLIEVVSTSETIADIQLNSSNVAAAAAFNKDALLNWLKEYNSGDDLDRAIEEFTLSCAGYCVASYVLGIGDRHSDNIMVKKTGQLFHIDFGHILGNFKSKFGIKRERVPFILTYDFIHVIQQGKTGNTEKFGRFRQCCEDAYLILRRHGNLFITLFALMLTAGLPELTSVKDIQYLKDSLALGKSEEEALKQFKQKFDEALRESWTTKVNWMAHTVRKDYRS
Chain of PI3K-beta (P27986 whole entry partner, species assumed): as the sequence (P27986 whole entry partner, species assumed) above
Chain of PLK-1 (P53350 whole entry, species assumed): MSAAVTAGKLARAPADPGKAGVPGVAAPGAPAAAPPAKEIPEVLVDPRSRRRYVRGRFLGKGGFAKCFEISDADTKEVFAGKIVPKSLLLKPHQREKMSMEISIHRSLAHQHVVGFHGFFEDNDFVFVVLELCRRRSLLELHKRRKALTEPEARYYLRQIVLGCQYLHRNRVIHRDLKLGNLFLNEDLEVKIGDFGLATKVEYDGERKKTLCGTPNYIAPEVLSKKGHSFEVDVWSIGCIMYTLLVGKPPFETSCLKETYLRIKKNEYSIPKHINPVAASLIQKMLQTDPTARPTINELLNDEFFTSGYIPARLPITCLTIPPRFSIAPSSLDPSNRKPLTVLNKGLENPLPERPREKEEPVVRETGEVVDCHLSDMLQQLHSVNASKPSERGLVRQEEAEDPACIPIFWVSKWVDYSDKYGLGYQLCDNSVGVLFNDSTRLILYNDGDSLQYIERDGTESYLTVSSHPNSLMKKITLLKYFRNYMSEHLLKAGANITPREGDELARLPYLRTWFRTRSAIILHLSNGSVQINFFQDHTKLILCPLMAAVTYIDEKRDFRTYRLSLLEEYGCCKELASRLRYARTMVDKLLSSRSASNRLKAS
Chain of PI3K-gamma (P48736 whole entry, species assumed): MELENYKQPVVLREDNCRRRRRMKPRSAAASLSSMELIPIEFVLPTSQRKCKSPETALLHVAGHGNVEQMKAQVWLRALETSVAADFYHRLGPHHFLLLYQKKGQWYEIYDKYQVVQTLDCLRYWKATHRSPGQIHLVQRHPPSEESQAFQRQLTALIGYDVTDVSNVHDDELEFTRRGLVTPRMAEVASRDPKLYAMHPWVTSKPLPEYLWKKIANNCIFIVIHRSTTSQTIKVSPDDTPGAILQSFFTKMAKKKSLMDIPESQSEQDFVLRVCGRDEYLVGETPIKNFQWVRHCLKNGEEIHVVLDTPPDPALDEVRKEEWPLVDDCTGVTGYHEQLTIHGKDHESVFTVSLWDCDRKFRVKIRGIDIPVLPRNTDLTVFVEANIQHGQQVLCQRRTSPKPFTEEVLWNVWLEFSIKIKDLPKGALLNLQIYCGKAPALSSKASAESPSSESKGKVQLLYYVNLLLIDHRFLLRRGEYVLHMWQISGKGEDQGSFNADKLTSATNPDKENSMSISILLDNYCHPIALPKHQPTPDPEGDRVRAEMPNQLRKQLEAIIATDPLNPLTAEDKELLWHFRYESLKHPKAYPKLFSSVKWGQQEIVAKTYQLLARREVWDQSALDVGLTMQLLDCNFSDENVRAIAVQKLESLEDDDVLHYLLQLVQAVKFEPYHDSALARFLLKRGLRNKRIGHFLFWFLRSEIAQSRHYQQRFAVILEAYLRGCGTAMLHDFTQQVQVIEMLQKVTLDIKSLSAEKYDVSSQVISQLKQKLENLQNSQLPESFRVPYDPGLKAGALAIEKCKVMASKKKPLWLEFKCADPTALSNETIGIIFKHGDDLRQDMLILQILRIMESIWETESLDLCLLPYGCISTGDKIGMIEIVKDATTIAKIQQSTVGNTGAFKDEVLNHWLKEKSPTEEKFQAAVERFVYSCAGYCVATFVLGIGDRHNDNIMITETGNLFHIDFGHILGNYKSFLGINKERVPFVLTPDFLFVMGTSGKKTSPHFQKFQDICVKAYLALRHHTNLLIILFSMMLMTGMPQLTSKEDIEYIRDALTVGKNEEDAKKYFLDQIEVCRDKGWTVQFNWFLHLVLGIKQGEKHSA
Chain of PIM-1 (P11309 whole entry, species assumed): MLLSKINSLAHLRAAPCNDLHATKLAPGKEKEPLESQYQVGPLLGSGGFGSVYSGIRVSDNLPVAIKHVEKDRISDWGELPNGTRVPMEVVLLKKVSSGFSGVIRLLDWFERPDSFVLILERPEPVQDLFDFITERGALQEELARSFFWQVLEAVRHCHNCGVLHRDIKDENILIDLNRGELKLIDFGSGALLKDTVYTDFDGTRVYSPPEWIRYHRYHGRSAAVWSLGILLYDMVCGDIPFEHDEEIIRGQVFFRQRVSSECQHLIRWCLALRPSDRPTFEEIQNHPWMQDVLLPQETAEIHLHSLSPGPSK

In the case of `Cc1nc2c(=O)nc(N3CCOCC3)[nH]c2n1-c1ccc(F)cc1` [Compound 30], the inhibition at 0.3 µM on PI3K-gamma is 3%; at PI3K-alpha it was 4.7%; at mTOR, 0%; on PLK-1 it was 0%; on PI3K-beta it was 14%; on PI3K-delta it was 32%. The inhibition at 0.3 µM at PIM-1 and on DNA-PK was 0% each time.

On to `O=c1nc(N2CCOCC2)oc2c(-c3cccnc3)csc12` [Compound 18], for which the inhibition at 0.3 µM on PI3K-alpha, on mTOR, on PLK-1 and at PI3K-delta was 0% each time.

Regarding `Cc1nc2c(=O)nc(N3CCOCC3)[nH]c2n1Cc1ccccc1` [Compound 29], the inhibition at 0.3 µM at PI3K-gamma came out at 0%; at PI3K-alpha, 7%; at mTOR it was 0%; at PLK-1, 0%; on PI3K-beta it was 0%; at PI3K-delta it was 0%. In addition, the inhibition at 0.3 µM at PIM-1 and at DNA-PK was 0% each time.

As for `O=c1nc(N2CCOCC2)[nH]c2c(-c3ccccc3)csc12` [Compound 5, 2-morpholino-7-phenylthieno[3,2-d]pyrimidin-4(1H)-one], on PI3K-alpha (read-out: PI3K-alpha(% Inh at 10 μM)), the inhibition at 10 µM is 12%. Further, in the assay with PC3 cells (PC-3, PC3 cells, 72 hours, WST), the IC50 was determined as 246 µM.

Turning to `O=c1nc(N2CCOCC2)[nH]c2c1cnn2-c1ccc(Cl)cc1` [Compound 28], the inhibition at 0.3 µM on PI3K-alpha was determined as 6.9%. On PI3K-delta, the inhibition at 10 µM was 0%.

As to `O=C(NCCN1CCOCC1)c1cccc(-c2csc3c(=O)nc(N4CCOCC4)oc23)c1` [Compound 16], the inhibition at 0.3 µM at PI3K-alpha worked out at 16%; at mTOR, 0%; on PLK-1, 0%; at PI3K-delta, 17%. Further, the IC50 with PC3 cells (PC-3, PC3 cells, 72 hours, WST) stood at 31 µM.

For `CN(C)c1ccc(-c2csc3c(=O)nc(N4CCOCC4)oc23)cc1` [Compound 15], the inhibition at 0.3 µM was 11% on PI3K-alpha, 0% on mTOR, 0% at PLK-1 and 33% at PI3K-delta. The IC50 with PC3 cells (PC-3, PC3 cells, 72 hours, WST) was 20 µM.

Turning to `O=c1nc(N2CCOCC2)oc2c(-c3ccoc3)csc12` [Compound 19], the inhibition at 0.3 µM on PI3K-alpha is 15%; on mTOR, 3%; on PLK-1 it was 0%; on PI3K-delta, 0%.

Regarding `Cc1ccc(-n2c(C)nc3c(=O)nc(N4CCOCC4)[nH]c32)cc1` [Compound 32], the inhibition at 0.3 µM came to 1% on PI3K-gamma; 0% on PI3K-alpha; 0% on mTOR; 0% on PLK-1; 0% on PI3K-beta; 15% on PI3K-delta. Further, the inhibition at 0.3 µM at PIM-1 and at DNA-PK was 0% each time.

Consider `COc1ccc(-c2csc3c(=O)nc(N4CCOCC4)oc23)cc1` [Compound 14], for which the inhibition at 0.3 µM on PI3K-alpha was determined as 19%; on mTOR, 0%; on PLK-1 it was 0%; at PI3K-delta it was 27%.

For the compound `O=c1nc(N2CCOCC2)[nH]c2c1cnn2C1CCCCC1` [Compound 8, 1-cyclohexyl-6-morpholino-1H-pyrazolo[3,4-d]pyrimidin-4(7H)-one], the inhibition at 10 µM on PI3K-gamma is 4.8%; on mTOR, 11%; on PLK-1 it was 3.4%; on PI3K-beta, 9.2%; at PI3K-delta, 18%; on PIM-1, 3.2%. Moreover, at PI3K-alpha, the inhibition at 0.3 µM was 2%. At DNA-PK, this compound yielded an IC50 of 24 µM.

Regarding `Cc1nc2c(=O)nc(N3CCOCC3)[nH]c2n1-c1ccccc1` [Compound 11, 8-methyl-2-morpholino-9-phenyl-3H-purin-6(9H)-one], the inhibition at 0.3 µM at PI3K-gamma was determined as 0%; on PI3K-alpha, 2.6%; on mTOR, 0%; on PLK-1, 0%; at PI3K-beta, 0%; on PI3K-delta, 32%. In addition, the inhibition at 0.3 µM at PIM-1 and on DNA-PK was 0% in each case.

Turning to `Nc1ccc(-c2csc3c(=O)nc(N4CCOCC4)oc23)cc1` [Compound 17], the inhibition at 0.3 µM was 22% at PI3K-alpha, 0% at mTOR, 0% at PLK-1 and 32% at PI3K-delta. The IC50 with PC3 cells (PC-3, PC3 cells, 72 hours, WST) stood at 108 µM.

In the case of `COc1cccc(-c2csc3c(=O)nc(N4CCOCC4)oc23)c1` [Compound 13], the inhibition at 0.3 µM on PI3K-alpha came to 6.8%; at mTOR it was 0%; at PLK-1 it was 0%; at PI3K-delta, 0%. The IC50 in the assay on PC3 cells (PC-3, 72 h) came out at 94 µM.

Take `O=c1nc(N2CCOCC2)[nH]c2c1cnn2Cc1ccccc1` [Compound 23]: the inhibition at 10 µM on PI3K-gamma came out at 15%; on mTOR it was 0%; at PLK-1, 4.9%; on PI3K-beta it was 14%; on PI3K-delta it was 0%; on PIM-1, 2.1%. The inhibition at 0.3 µM on PI3K-alpha came to 6.6%. Besides, at DNA-PK, the IC50 is 24 µM.

With `O=c1nc(N2CCOCC2)[nH]c2c1cnn2CCO` [Compound 26], the inhibition at 10 µM on PI3K-gamma is 0.6%; at mTOR it was 0.5%; on PLK-1 it was 3.3%; at PI3K-beta it was 14%; on PI3K-delta, 26%; on PIM-1, 1.5%. Besides, the inhibition at 0.3 µM on PI3K-alpha is 9%. The same compound yielded an IC50 on DNA-PK of 24 µM.

Regarding `O=c1nc(N2CCOCC2)[nH]c2c1cnn2-c1ccccn1` [Compound 25], the inhibition at 10 µM was found to be 35% on PI3K-gamma; 0% on mTOR; 2.6% on PLK-1; 4.7% at PI3K-beta; 10% on PI3K-delta; 9.4% at PIM-1. Also, the inhibition at 0.3 µM at PI3K-alpha worked out at 6.6%. Moreover, the IC50 against DNA-PK is 24 µM.

Turning to `COc1ccc(C#Cc2csc3c(=O)nc(N4CCOCC4)oc23)cc1` [Compound 20], the inhibition at 0.3 µM at PI3K-alpha, on mTOR, on PLK-1 and at PI3K-delta was 0% each time.

For `Cc1nc2c(=O)nc(N3CCOCC3)[nH]c2n1-c1ccc2[nH]ccc2c1` [Compound 31], the inhibition at 0.3 µM is 7.5% on PI3K-gamma; 7.5% on PI3K-alpha; 0% at mTOR; 0% on PLK-1; 2.5% at PI3K-beta; 8.7% at PI3K-delta. Also, the inhibition at 0.3 µM on PIM-1 and at DNA-PK was 0% each time.

In the case of `O=c1nc(N2CCOCC2)oc2c(-c3ccc4c(c3)OCCO4)csc12` [Compound 12], the inhibition at 0.3 µM on PI3K-alpha came to 53%; at mTOR, 0%; on PLK-1, 0%; on PI3K-delta, 72%. Moreover, in the assay with PC3 cells (PC-3, PC3 cells, 72 hours, WST), the IC50 was 4.7 µM.
